# Test results reported in patent publication US10975056B2 (GlaxoSmithKline Intellectual Property Development Limited, priority 2016, dated 2021).
# What was measured:
# [1] = tested on: sickle cell disease (SCD) model transgenic mice; test: Fetal hemoglobin in sickle cell disease transgenic mouse model, % HbF protein by HPLC; assay type: in vivo; conditions: oral, 10 or 50 mg/kg BID daily, measured by HPLC
# Description: FIG. 2A depicts the effect of Compound A on fetal hemoglobin in the transgenic mouse model.
# [2] = tested on: CpG sites in or near the promoter regions of HBG1 and HBG2 gene loci; test: Bisulfite sequence analysis of HBG1/HBG2 DNA methylation in EPCs; assay type: cell-based, human; conditions: EPCs treated for 3 days, average of nine sites
# Experimental: To assay the effect of Compound A on DNA methylation, EPCs treated for 3 days with Compound A were harvested and genomic DNA was bisulfite sequenced. Methylation of nine CpG sites in or near the promoter regions of HBG1 and HBG2 gene loci were selected and analyzed based on their previous characterization as sites of DNMT1 methylation during erythropoiesis (Mabaera et al. Blood: 110 (4). 2007).
# Bisulfite Sequence Analysis
# Genomic DNA was extracted in duplicate from Day 7 EPCs cultured at 37° C. with 5% CO2 and 5% O2 for 3 days in the presence of compound using a ZYMO gDNA kit (Zymo Research, Irvine, Calif.). The isolated DNA was bisulfite converted using a Zymo EZ DNA Methylation Kit. Primer sets for Bisulfite treated regions within the HBG1 and HBG2 were designed using ABI Methyl Primer Express Software. Analyzed regions included 9 previously described sites of DNMT1-dependent DNA methylation (Mabaera et al. Blood: 110 (4). 2007). DNA was further amplified on the fluidigm and QC'd using the Agilent bio-analyzer. MiSeq was performed using the IIlumina system and the output was Analyzed using ArrayStudio v8 and CLC-GWB v8.1.
# [3] = tested on: erythroid progenitor cells (EPCs); test: Cell growth analysis in day 7 EPCs (Cell Titer-Glo); assay type: cell-based; conditions: Homo sapiens, read-out: cell growth inhibition by 50%, average pGI50 (converted), 5 days
# Experimental: Day 7 EPCs were cultured in duplicate plates with serially diluted Compound A for 5 days at 37° C. Wells were then analyzed for either induction of fetal hemoglobin (HbF,HbF ELISA) or cell growth (Cell Titer-Glo). In both cases, signal was normalized to vehicle-control treated cells.
# All donors provided written informed consent for use of their samples, and the collection and use of the samples received institutional review board approval. All cryopreserved human bone marrow CD34+ cells used here were obtained from AlICells (Emeryville, Calif.) and were generally from different donors. The CD34+ cells were cultured to generate EPCs at day 7. […]
# At the time of compound treatment, frozen day 7 EPCs prepared as described above were thawed, washed once and re-suspended in complete culture media as described above with the exception of an increase of rhEPO to 3 U/mL. Cells were counted and diluted to […] for plating into assay plates. […]
# Cell growth assays were performed on cell culture plates after 5 days incubation at 37° C. with 5% CO2. […] The plates were then incubated at room temperature for 10 min prior to reading on ViewLux 1430 (Perkin Elmer) using a luminescence protocol. Average reading of control wells (16 wells in column 6 of each assay plate) containing DMSO only were used as the basal level for normalization. […]
structure (smiles),measurement,setting,value
"CCc1c(C#N)c(SC(C(N)=O)c2ccccc2)nc(N(C)C)c1C#N (stereo not drawn) [Compound A, 2-{[3,5-dicyano-6-(dimethylamino)-4-ethylpyridin-2-yl]sulfanyl}-2-phenylacetamide]",% HbF protein,[1],dose dependent increases
same,decrease in methylation of nine CpG sites compared with vehicle treated cells,[2],65±5%
same,GI50,[3],1260 nM
